Assay results from US4110327A, “2,3 Diketo-piperazinocarbonylamino alkanoic acids and derivatives” (Toyama Chemical Co., Ltd., priority 1974, dated 1978).

Legend:
[1] = Acute toxicity LD50 i.v. in mouse; conditions: in vivo, iv
From the text: The present penicillins and cephalosporins have generally low toxicity.

Proteus rettgeri = test: MIC against clinical isolates; type: cell-based; conditions: clinical isolate, unit assumed
Proteus vulgaris 3027 = test: MIC against standard strain, plate method; type: cell-based; conditions: Proteus vulgaris 3027, standard strain; unit assumed
In short: (§1)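 Minimum inhibitory concentrations were determined on agar plates of heart infusion medium (pH 7.4) inoculated with 10^4 cells per plate.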

[2] = test system: Pseudomonas aeruginosa I.F.O.; test: MIC against standard strain, plate method; type: cell-based; conditions: unit assumed
In short: as §1

[3] = test system: Staphylococcus aureus 209p; test: MIC against standard strain, plate method; type: cell-based; conditions: unit assumed
In short: as §1

Escherichia coli NIHJ = test: MIC against standard strain, plate method; type: cell-based; conditions: unit assumed
In short: as §1

Klebsiella pneumoniae [4] = test: MIC against standard strain, plate method; type: cell-based; conditions: unit assumed
In short: as §1

β-lactamase = test: Resistant activity against β-lactamase, iodometric assay; type: biochemical, Pseudomonas aeruginosa GN 238; conditions: relative to Potassium Penicillin G = 100
In short: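 β-Lactamase taken as sonicated-cell supernatant from Pseudomonas aeruginosa GN 238 grown 6 h at 37° C, washed in 0.1 M phosphate pH 7.0. Compound stability to the enzyme measured iodometrically; values relative to potassium penicillin G set at 100.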

Staphylococcus aureus = test: MIC against clinical isolates; type: cell-based; conditions: unit assumed
Salmonella typhi = test: MIC against clinical isolates; type: cell-based; conditions: unit assumed
Salmonella typhi-murium = test: MIC against clinical isolates; type: cell-based; conditions: unit assumed
Pseudomonas aeruginosa = test: MIC against clinical isolates; type: cell-based; conditions: unit assumed
Escherichia coli = test: MIC against clinical isolates; type: cell-based; conditions: unit assumed
Shigella sonnei = test: MIC against clinical isolates; type: cell-based; conditions: unit assumed
Method: (§2) The minimum inhibitory concentrations (MIC) was determined by the plate method disclosed in "Chemotherapy" (Japan), Vol. 16, (1968), pages 98 - 99. The culture medium used was a Heart infusion agar (pH 7.4). The number of the cells per plate used in the inoculum as 10^4 (10^6 cells/ml).
(§3) MIC was determined in the same manner as in the preceding paragraph (1).

Shigella flexneri = test: MIC against clinical isolates; type: cell-based; conditions: clinical isolate JS 11215; unit assumed
Method: as §2, §3

Klebsiella pneumoniae [5] = test: MIC against clinical isolates; type: cell-based; conditions: unit assumed
Proteus morganii = test: MIC against clinical isolates; type: cell-based; conditions: clinical isolate, unit assumed
Proteus vulgaris = test: MIC against clinical isolates; type: cell-based; conditions: clinical isolate, unit assumed
Proteus mirabilis = test: MIC against clinical isolates; type: cell-based; conditions: clinical isolate, unit assumed

CN1CCN(C(=O)N[C@@H](C(=O)N[C@@H]2C(=O)N3[C@@H]2SC(C)(C)[C@@H]3C(=O)O)c2ccccc2)C(=O)C1=O
> 5000 mg/kg: LD50 [1]

CCCCCCCCN1CCN(C(=O)N[C@@H](C(=O)N[C@@H]2C(=O)N3[C@@H]2SC(C)(C)[C@@H]3C(=O)O)c2ccccc2)C(=O)C1=O (single isomer, unassigned) [compound 47]
25 µg/mL: MIC (Pseudomonas aeruginosa; clinical isolate GN 221) | MIC (Pseudomonas aeruginosa; clinical isolate GN 383) | MIC (Pseudomonas aeruginosa; clinical isolate GN 1035) | MIC (Pseudomonas aeruginosa; clinical isolate GN 2565) | MIC (Pseudomonas aeruginosa; clinical isolate GN (number not given; Table 5-3))
3.13 µg/mL: MIC (Salmonella typhi; clinical isolate SL 819)
12.5 µg/mL: MIC (Staphylococcus aureus; clinical isolate F-4) | MIC (Pseudomonas aeruginosa; clinical isolate GN 82) | MIC (Pseudomonas aeruginosa; clinical isolate GN 163) | MIC (Pseudomonas aeruginosa; clinical isolate GN 1091) | MIC (Pseudomonas aeruginosa; clinical isolate GN 2987) | MIC (Klebsiella pneumoniae [5]; clinical isolate GN 4081) | MIC (Klebsiella pneumoniae [5]; clinical isolate GN 4117)
0.79 µg/mL: MIC (Proteus rettgeri) | MIC (Escherichia coli; clinical isolate GN 3435) | MIC (Escherichia coli; clinical isolate K-4) | MIC (Shigella sonnei; clinical isolate JS 11755)
> 200 µg/mL: MIC (Staphylococcus aureus; clinical isolate F-5) | MIC (Escherichia coli; clinical isolate GN 3611)
< 0.4 µg/mL: MIC (Staphylococcus aureus; clinical isolate MS 8619) | MIC (Salmonella typhi-murium; clinical isolate SL 858) | MIC (Proteus morganii) | MIC (Proteus vulgaris) | MIC (Proteus mirabilis)
6.25 µg/mL: MIC [2] | MIC (Staphylococcus aureus; clinical isolate F-1) | MIC (Staphylococcus aureus; clinical isolate MS 8713) | MIC (Escherichia coli; clinical isolate GN 3465) | MIC (Shigella sonnei; clinical isolate JS 11232) | MIC (Shigella flexneri)
50 µg/mL: MIC (Salmonella typhi-murium; clinical isolate SL 2136) | MIC (Pseudomonas aeruginosa; clinical isolate GN 376) | MIC (Pseudomonas aeruginosa; clinical isolate S-1) | MIC (Pseudomonas aeruginosa; clinical isolate S-2) | MIC (Pseudomonas aeruginosa; clinical isolate S-3) | MIC (Pseudomonas aeruginosa; clinical isolate S-4)
< 1.57 µg/mL: MIC (Proteus vulgaris 3027) | MIC [3] | MIC (Escherichia coli NIHJ) | MIC (Klebsiella pneumoniae [4])
1%: Relative activity (β-lactamase)
1.57 µg/mL: MIC (Salmonella typhi; clinical isolate SL 2169)
100 µg/mL: MIC (Escherichia coli; clinical isolate K-3)

CCN1CCN(C(=O)N[C@@H](C(=O)N[C@@H]2C(=O)N3[C@@H]2SC(C)(C)[C@@H]3C(=O)O)c2ccccc2)C(=O)C1=O
> 5000 mg/kg: LD50 [1]
